According to ChEMBL document CHEMBL1770065, “Discovery of a clinical candidate from the structurally unique dioxa-bicyclo[3.2.1]octane class of sodium-dependent glucose cotransporter 2 inhibitors” (J Med Chem, 2011):

Key:
[1] = Cmax in Sprague-Dawley rat at 5 mg/kg, po; format: ADME, organism-based; set-up: dose 5 mg/kg, route oral; details: in vivo
[2] = molecular target: T1, Solute carrier family 22 member 6 (Homo sapiens, UniProt Q4U2R8); assay: Inhibition of human OAT1
T1 sequence (Q4U2R8 whole entry): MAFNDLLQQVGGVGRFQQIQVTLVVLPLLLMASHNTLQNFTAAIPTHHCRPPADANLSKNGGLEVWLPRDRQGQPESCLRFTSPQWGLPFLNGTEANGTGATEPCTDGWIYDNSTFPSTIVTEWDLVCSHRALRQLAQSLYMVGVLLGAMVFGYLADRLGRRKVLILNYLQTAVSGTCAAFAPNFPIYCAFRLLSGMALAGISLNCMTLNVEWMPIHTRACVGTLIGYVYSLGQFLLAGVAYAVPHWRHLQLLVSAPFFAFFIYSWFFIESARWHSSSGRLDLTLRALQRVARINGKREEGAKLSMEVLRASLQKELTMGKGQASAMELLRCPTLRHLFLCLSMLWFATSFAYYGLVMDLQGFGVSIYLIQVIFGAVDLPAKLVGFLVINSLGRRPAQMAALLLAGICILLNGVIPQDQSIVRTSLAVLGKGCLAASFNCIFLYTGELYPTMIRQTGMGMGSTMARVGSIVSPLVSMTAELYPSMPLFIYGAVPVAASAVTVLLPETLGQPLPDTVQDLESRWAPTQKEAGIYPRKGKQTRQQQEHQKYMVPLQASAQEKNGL

Rattus norvegicus [3] = assay: Average free plasma concentration in Sprague-Dawley rat at 30 mg/kg, po after 24 hrs; format: ADME, organism-based; set-up: dose 30 mg/kg, route oral; details: in vivo
[4] = Oral bioavailability in Sprague-Dawley rat at 5 mg/kg; format: ADME, organism-based; details: in vivo
Plasma [5] = assay: Fraction unbound in human plasma at 1000 ng/mL by equilibrium dialysis method; format: ADME, cell-free
[6] = molecular target: T2, Sodium/glucose cotransporter 2 (Homo sapiens, UniProt P31639); assay: Inhibition of human SGLT2 expressed in CHO cells assessed as inhibition of methyl alpha-D-glucopyranoside uptake after 1 hr; format: cell-based
T2 sequence (P31639 whole entry): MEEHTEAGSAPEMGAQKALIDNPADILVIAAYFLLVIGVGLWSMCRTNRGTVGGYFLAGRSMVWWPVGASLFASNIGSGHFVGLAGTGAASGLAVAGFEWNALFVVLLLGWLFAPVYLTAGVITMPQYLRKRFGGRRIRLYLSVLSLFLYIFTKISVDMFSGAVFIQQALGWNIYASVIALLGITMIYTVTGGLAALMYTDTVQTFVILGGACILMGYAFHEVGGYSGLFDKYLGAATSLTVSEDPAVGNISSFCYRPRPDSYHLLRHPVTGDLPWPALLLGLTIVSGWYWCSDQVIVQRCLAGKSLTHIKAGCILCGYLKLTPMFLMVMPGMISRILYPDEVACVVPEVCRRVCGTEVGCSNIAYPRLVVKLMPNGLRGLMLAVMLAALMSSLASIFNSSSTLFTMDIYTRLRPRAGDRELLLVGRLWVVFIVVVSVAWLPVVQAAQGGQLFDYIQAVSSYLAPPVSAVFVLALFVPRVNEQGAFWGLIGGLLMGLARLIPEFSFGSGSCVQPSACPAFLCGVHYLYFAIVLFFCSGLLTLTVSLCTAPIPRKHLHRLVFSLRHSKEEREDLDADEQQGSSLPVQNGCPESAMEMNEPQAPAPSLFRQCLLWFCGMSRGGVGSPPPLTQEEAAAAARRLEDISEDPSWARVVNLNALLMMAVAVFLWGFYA

Rattus norvegicus [7] = assay: fAUC (0 to 24 hrs) in Sprague-Dawley rat at 30 mg/kg, po after 24 hrs; format: ADME, organism-based; set-up: dose 30 mg/kg, route oral; details: in vivo
Rattus norvegicus [8] = assay: Inhibition of SGLT2 in po dosed Sprague-Dawley rat after 24 hrs; format: functional, organism-based
[9] = Tmax in Sprague-Dawley rat at 5 mg/kg, po; format: ADME, organism-based; set-up: dose 5 mg/kg, route oral; details: in vivo
Plasma [10] = assay: Fraction unbound in rat plasma at 1000 ng/mL by equilibrium dialysis method; format: ADME, cell-free
[11] = molecular target: T3, Sodium/glucose cotransporter 2 (Rattus norvegicus, UniProt P53792); assay: Inhibition of rat SGLT2
T3 sequence (P53792 whole entry): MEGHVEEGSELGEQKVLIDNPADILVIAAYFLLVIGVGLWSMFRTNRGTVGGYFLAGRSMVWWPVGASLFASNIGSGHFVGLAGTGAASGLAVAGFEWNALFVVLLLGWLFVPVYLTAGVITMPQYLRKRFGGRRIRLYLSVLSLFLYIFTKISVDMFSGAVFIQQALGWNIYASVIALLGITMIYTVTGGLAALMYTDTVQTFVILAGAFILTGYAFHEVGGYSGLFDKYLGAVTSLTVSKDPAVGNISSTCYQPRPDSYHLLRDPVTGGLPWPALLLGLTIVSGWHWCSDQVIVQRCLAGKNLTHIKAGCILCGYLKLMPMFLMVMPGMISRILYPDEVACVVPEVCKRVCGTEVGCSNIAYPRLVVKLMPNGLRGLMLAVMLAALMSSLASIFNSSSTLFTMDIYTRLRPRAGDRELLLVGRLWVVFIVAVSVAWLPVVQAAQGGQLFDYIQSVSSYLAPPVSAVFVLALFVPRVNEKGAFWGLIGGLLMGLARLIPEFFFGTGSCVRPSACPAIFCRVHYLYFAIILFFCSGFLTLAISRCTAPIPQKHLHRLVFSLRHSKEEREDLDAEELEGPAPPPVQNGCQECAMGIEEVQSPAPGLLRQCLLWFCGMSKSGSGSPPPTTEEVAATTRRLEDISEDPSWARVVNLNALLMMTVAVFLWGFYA

Cmax [1]: 1940 ng/mL | inhibition (INH) [2]: Not Active | Cp (Rattus norvegicus [3]): 408 nM | bioavailability [4]: 69% | Fu (Plasma [5]): 6.4% | IC50 [6]: 0.877 nM | fAUC (Rattus norvegicus [7]): 4280 ng·h/mL | IC50 (Rattus norvegicus [8]): 1.8 nM | Tmax [9]: 1 h | Fu (Plasma [10]): 4% | IC50 [11]: 1.15 nM
SMILES: CCOc1ccc(Cc2cc([C@]34OC[C@](CO)(O3)[C@@H](O)[C@H](O)[C@H]4O)ccc2Cl)cc1 [ERTUGLIFLOZIN]
